Results: patent US20110092524A1, “Agent for Enhancing Corneal Epithelial Barrier Function” (SANTEN PHARMACEUTICAL CO., LTD., priority 2008, published 2011)
Read-outs that look alike come from different tables or passages of the source.

Tests used:
[1] = system: SV40-immortalized human corneal epithelial cells (HCE-T); assay: Enhancing effect of PPARγ agonist on barrier function (membrane electrical resistance of corneal epithelial cell layer); format: cell-based; conditions: for Membrane electrical resistance: five days after seeding, average of four experiments, base culture 296.0
Description: The PPARγ agonist was evaluated with respect to the enhancing effect on the barrier function of a corneal epithelial cell. For the corneal epithelial cell, an SV40-immortalized human corneal epithelial cell line was used, utilizing a membrane electrical resistance as an index of the barrier function. When the bather function of the corneal epithelial cell is enhanced, the membrane electrical resistance increases, while the bather function is reduced, the membrane electrical resistance decreases.
From RIKEN BioResource Center, SV40-immortalized human corneal epithelial cells (HCE-T) were obtained. […] As the culture medium, a DMEM/Ham's F12 (Nacalai Tesque, Inc.) containing 15% fetal bovine serum (ICN) and 40 μg/mL of gentamicin (Gibco) was used. […] The concentration mentioned above was attained by dissolving each sample in DMSO and diluting 1,000-fold with the culture medium. In addition, a culture medium containing DMSO alone was used as a base culture medium.
(§1) Five days after the seeding, an electrical resistance of an epithelial cell layer was measured using a membrane electrical resistance measurement system (World Precision Instruments). A well containing the base medium alone with no corneal epithelial cell seeded was measured as a blank, and the value was subtracted from the electrical resistance of the epithelial cell layer. The resultant value was multiplied by an area of the cell culture (0.33 cm^2), to thereby obtain an electrical resistance (Ω·cm^2) per unit area.

[2] = system: SV40-immortalized human corneal epithelial cells (HCE-T); assay: Influence of PPARγ antagonist on barrier function enhancing effect of PPARγ agonist (membrane electrical resistance); format: cell-based; conditions: for Membrane electrical resistance: five days after seeding, average of four experiments, base culture 434.1
Description: An influence of the PPARγ antagonist was evaluated with respect to the barrier function enhancing effect of the PPARγ agonist, and it was examined whether or not the enhancing effect on the barrier function is based on the activity of the PPARγ agonist.
From RIKEN BioResource Center, SV40-immortalized human corneal epithelial cells (HCE-T) were obtained. On a culture insert of 24-well Transwell Clear (Corning Incorporated) were seeded 6.4×10^4 cells of HCE-T, and incubated at 37° C. in 5% CO2. As the culture medium, a DMEM/Ham's F12 (Nacalai Tesque, Inc.) containing 15% fetal bovine serum (ICN) and 40 μg/mL of gentamicin (Gibco) was used. The culture medium was removed after 9 hours, 2 days, 3 days and 4 days, and replaced with a culture medium containing the PPARγ agonist and the PPARγ antagonist to thereby obtain samples. As the PPARγ agonist, rivoglitazone [0.1 μM] was used, and as the PPARγ antagonist, 2-chloro-5-nitrobenzanilide (GW-9662) [0.03 μM, 0.1 μM] was used. The concentrations mentioned above were attained by dissolving each sample in DMSO and diluting 1,000-fold with the culture medium. In addition, a culture containing DMSO alone was used as a base culture medium.
as §1, with “obtaining” for “obtain”

## COc1ccc(OC(=O)N(CC(=O)O)Cc2ccc(OCCc3nc(-c4ccccc4)oc3C)cc2)cc1 [BMS-298585, N-[(4-methoxyphenoxy)carbonyl]-N-[[4-[2-(5-methyl-2-phenyl-4-oxazolyl)ethoxy]phenyl]methyl]glycine]
[1]
  barrier function enhancing effect (in words): excellent barrier function enhancing effect

## C/C(=C/C(=O)c1ccccc1)N[C@@H](Cc1ccc(OCCc2nc(-c3ccccc3)oc2C)cc1)C(=O)O [GW-544, N-[1-methyl-3-oxo-3-phenyl-1(Z)-propenyl]-O-[2-(5-methyl-2-phenyloxazol-4-yl)ethyl]-L-tyrosine]
[1]
  barrier function enhancing effect (in words): excellent barrier function enhancing effect

## O=C(Nc1ccccc1)c1cc([N+](=O)[O-])ccc1Cl [GW-9662, 2-chloro-5-nitrobenzanilide]
[2]; GW-9662 0.03 μM and 0.1 μM with rivoglitazone 0.1 μM
  antagonism of the barrier function enhanced by rivoglitazone (in words): concentration-dependently reduced
[2]; GW-9662 at 0.1 μM with rivoglitazone 0.1 μM
  antagonism of the barrier function enhanced by rivoglitazone (in words): completely antagonized

## CCc1ccc(CCOc2ccc(CC3SC(=O)NC3=O)cc2)nc1 (centres unmarked) [Pioglitazone, 5-[[4-[2-(5-ethyl-2-pyridinyl)ethoxy]phenyl]methyl]-2,4-thiazolidinedione]
[1]; sample 10 μM, HCE-T
  Membrane electrical resistance: 350.3 Ω · cm^2

## COc1ccc2nc(COc3ccc(CC4SC(=O)NC4=O)cc3)n(C)c2c1 (centres unmarked) [Rivoglitazone, 5-[4-(6-methoxy-1-methyl-1H-benzimidazol-2-ylmethoxy)benzyl]thiazolidine-2,4-dione]
[1]; sample 10 μM, HCE-T, compared with base culture medium
  barrier function enhancing effect (in words): extremely strong barrier function enhancing effect
[1]; sample 10 μM, HCE-T
  Membrane electrical resistance: 615.9 Ω · cm^2
[2]; rivoglitazone 0.1 μM alone
  Membrane electrical resistance: 538.8 Ω · cm^2
[2]; rivoglitazone 0.1 μM and GW-9662 0.03 μM
  Membrane electrical resistance: 473.5 Ω · cm^2
[2]; rivoglitazone 0.1 μM and GW-9662 0.1 μM
  Membrane electrical resistance: 429.3 Ω · cm^2

## CN(CCOc1ccc(CC2SC(=O)NC2=O)cc1)c1ccccn1 (centres unmarked) [Rosiglitazone, 5-[p-[2-(methyl-2-pyridylamino)ethoxy]benzyl]-2,4-thiazolidinedione]
[1]; sample 10 μM, HCE-T
  Membrane electrical resistance: 343.2 Ω · cm^2
